Source: patent publication US20140087451A1, “ACOUSTIC WAVE (AW) SENSING DEVICES USING LIVE CELLS” (University of Massachusetts, priority 2010, published 2014)

How the values were obtained:
HMVEC-L cells = assay: Commercial quartz crystal microbalance (QCM), 10 MHz fundamental frequency, equivalent prior experiments; type: cell-based, human
[1] = test system: Human Microvascular Endothelial Cells derived from Lung (HMVEC-L); assay: Surface acoustic wave (SAW) device, 21 MHz, frequency and attenuation response of attached cells; type: cell-based; conditions: for sensitivity (frequency shift normalized to operating frequency and number of live attached cells): SAW 21 MHz
Method: An AT cut quartz wafer was prepared with electrodes for a surface acoustic wave (SAW) patterned on one side. The transmitting and receiving electrodes were composed of interdigitated (IDT) electrodes fabricated by lift off of gold deposited by electron beam evaporation. The IDTs were composed of 120 pairs of electrode fingers. This spacing corresponds to the wavelength of a SAW of 21 MHz. The sensing area between the IDTs was 20×8 mm. A 2 μm thick layer of poly(methylmethacrylate) (PMMA) was spin coated onto the surface of the SAW to serve as an insulating layer for the IDTs as well as a waveguide for the Love waves generated by the transmitting IDT.
The SAW was connected to an Agilent E5061B network analyzer, set up for transmission measurements (s12). Before liquid was added, the resonant frequency of 21 MHz was confirmed. Using Labview software, the resonant frequency and attenuation of the SAW was measured once per second during an experiment. A drop of cell media containing cells was placed in the sensing area allowing cells to attach, as described below.
The Human Microvascular Endothelial Cells derived from Lung (HMVEC-L) cell line was obtained from Lonza (Basel, Switzerland) and stock cultures were established and grown in media recommended by the manufacturers, at 37° C. in a humidity controlled incubator with 5% CO2, unless otherwise noted. The media used was EBM™-2, (CC-3156) (Lonza Basel, Switzerland) with EGM™-2-MV BulletKit™ (CC-3202) (Lonza Basel, Switzerland) containing hEGF, Hydrocortisone, GA-1000 (Gentamicin, Amphotericin-B), VEGE, hFGF-B, R3-IGF-1 and 5% FBS. The HMVEC-L cells were grown in 25 cm^2 rectangular canted neck cell culture flasks with vented caps (Corning Life Science, Lowell, Mass.), and re-fed every three days and passaged once a week using a 0.05% solution of trypsin:EGTA (Invitrogen, Carlsbad, Calif.) as stock cultures.
Two different treatments of the cells on the SAW device were carried out in separate experiments. […] All the solutions were stored at 4° C. in a refrigerator. Prior to cell plating onto the SAW device, the SAW device was cleaned by rinsing with distilled water and then UV sterilized for 30 min. After sterilization and further washing with water and Phosphate Buffered Saline (PBS), 50 μl of medium containing 20,000 HMVEC-L cells was added to the sensing area of the SAW device, which had been previously placed within a 150 mm diameter Petri dish. Smaller Petri dishes filled with reservoirs of media were placed around the central SAW device, in order to provide additional surface area for evaporation of water. The purpose of this arrangement, large volume and area reservoirs of iso-osmotic pressure media in the Petri dishes, was to prevent evaporative loss of water from the small volume of media covering the cells in the sensing area of the SAW device. The SAW device in the large covered Petri dish was located on the bench top in ambient air. The Petri dish cover was removed and cells were plated in media onto the sensing area surface of the SAW device and the HMVEC-L cells in the covered Petri dish were allowed to attach to the sensing area SAW device surface for 18 hr. Then, the media was changed with 50 μl fresh medium.

HMECs = conditions: bFGF added to HMECs; cited from earlier work
[2] = test system: Human Mammary Epithelial Cells (HMECs); assay: QCM (10 MHz) fundamental and third overtone frequency shift with attached cells treated with growth factor; type: cell-based; conditions: bFGF 12.5 ng/ml final; 20,000 HMEC cells on 10 MHz QCM; 300 min after addition; FIG. 6
Excerpt: An AT cut 0.538″ diameter quartz disk with 100 nm thick gold electrodes was used for the piezoelectric medium in this experiment. A polydimethylsiloxane (PDMS) tube with an outer diameter of 0.4″ and an inner diameter of 0.3″ and 0.3″ high was attached to one side of the quartz disk for use as a reservoir for cell media. The quartz crystal was mounted in a HC35/U holder with silver epoxy bonding between the electrodes and the gold electrodes on the crystal.
The oscillator circuitry is a Colpitts oscillator, shown in FIG. 7, modified to enable the quartz to undergo shear wave oscillations under a liquid load. The thickness of the crystal is such that an unloaded crystal oscillating in air would operate at 10 MHz. The Colpitts oscillator was tuned to only amplify frequencies in the range of 10 MHz. A second class C amplifier operating as a frequency multiplier was connected to the ungrounded electrode of the quartz crystal. The multiplier was tuned to capture the crystal's third harmonic oscillations. The output of the multiplier and the voltage at the crystal were connected to the inputs of a two channel oscilloscope. The waveforms were digitally captured using Labview software and passed through a fast Fourier transform. The frequency of the signals were captured and recorded at one minute intervals, prior to and following addition of cells to the crystal surface. […]

[3] = test system: its specific growth factor receptor; conditions: stated as 'has been shown'; cited from earlier work

In the case of [N-]=[N+]=[N-] [sodium azide, Sodium azide], the equivalent sensitivity (HMVEC-L cells; 50 mM azide experiment) is reported as 4.1×10^−9 /cell, the “change in Attenuation values” ([1]; 50 mM sodium azide final, 20,000 HMVEC-L cells on SAW device, FIG. 11) is reported as “approximately 8 dBm” and the increase in frequency ([1]; 50 mM sodium azide final, 20,000 HMVEC-L cells on SAW sensing area, 4 hr after addition, FIG. 11) is reported as “about 17 kHz”. The “sensitivity (frequency shift normalized to operating frequency and number of live attached cells)” value ([1]; 50 mM sodium azide experiment) was 5.6×10^−8 /cell.

In the case of “bFGF: Basic human Fibroblast Growth Factor from Sigma, reconstituted in 50 mM Tris-HCl pH7.5”, the “lag time of proliferative response (increase in thymidine incorporation)” value (HMECs) is given as “about 21 hr”, the “frequency shift of third overtone compared to the fundamental in response to the growth factor” value [2] is given as “larger frequency shift” and the “time to bind and activate its specific growth factor receptor” value [3] is given as ≤ 8 min.

For trypsin, the equivalent sensitivity (HMVEC-L cells; trypsinization experiment) was 1×10^−8 /cell, the “abrupt increase in frequency” value ([1]; 0.05% trypsin:EGTA, cell release, 20,000 HMVEC-L cells on SAW sensing area, FIG. 12) was “about 60 kHz” and the “sensitivity (frequency shift normalized to operating frequency and number of live attached cells)” value ([1]; Trypsin enzymatic removal experiment) was 3.75×10^−7 /cell.
